Results published in the OPERA property sets (Mansouri et al. 2018).

Structure (SMILES) | logP
O=NN(CCCl)C(=O)NC1C=CCCC1 (centres undefined) | 2.45
O=C1CCCN1CCOc1ccc([N+](=O)[O-])cc1 | 1.33
CC(=O)N(CC(O)CO)c1c(I)c(C(=O)NCC(O)CO)c(I)c(C(=O)NCC(O)CO)c1I (centres undefined) | -3.05
CC1(C)SC2C(NC(=O)C(Cl)c3ccccc3)C(=O)N2C1C(=O)O (centres undefined) | 2.3
CC(C)(C)c1nnc(N)o1 | 0.48
CNC(=O)C(Cc1ccccc1)NC(C)=O (centres undefined) | 0.4
CC(=O)OCCN1CCS/C1=N/c1ncc([N+](=O)[O-])s1 | 1.88
COCN1C(=O)C(O)N=C(c2ccccc2)c2cc(N)ccc21 (centres undefined) | 0.75
S=C=Nc1ccc(Nc2ccccc2)cc1 | 4.94
O=[N+]([O-])c1nccnc1NCC(O)CO (centres undefined) | -0.49
COP(N)(=O)Oc1cc(Cl)c(Cl)cc1Cl (centres undefined) | 2.53
CC(C)Oc1ccccc1OC(=O)N(C)C | 2.06
COc1cc(-n2c(=O)cc(C)n2C)nc(C)n1 | 0.7
O=S(=O)(Nc1ccc(I)cc1)C(F)(F)F | 4.39
COC12C(COC(N)=O)C3=C(C(=O)C(C)=C(N)C3=O)N1CC1C2N1C(=O)OCc1ccccc1 (centres undefined) | 1.34
CCc1ccc(O[Si]23OCCN(CCO2)CCO3)cc1 | 0.56
CCCCN(SN(C)C(=O)ON=C(C)SC)C(=O)OC | 2.5
CNC(=N)NC(=N)Nc1ccc(Cl)cc1 | 1.58
CC(=O)Nc1cccc(OC(C)=O)c1 | 1.03
O=c1ccnc2ccccn12 | 0.2
Cc1cc(C)cc(OC2OC(CO)C(O)C(O)C2O)c1 (centres undefined) | 0.26
CCNP(=O)(OC)Oc1cc(Cl)c(Cl)cc1Cl (centres undefined) | 3.18
CN(C)CNC(=O)c1ccccc1 | 0.63
CCCCCCCCCC[n+]1ccc(C)cc1C.[I-] | 0.54
CCC1C(=O)NC(=O)N(C)C1=O (centres undefined) | 0.15

Structure (SMILES) | logP
CC(=O)c1cccc(N2C(N)=NC(N)=NC2(C)C)c1 | -0.22
CN(C)C(=O)Nc1cccc(O)c1 | 0.51
CNc1nc(N(C)C)nc(N(C)C)n1 | 1.83
NS(=O)(=O)c1nc2ccc(O)cc2s1 | 1.13
Nc1ccc(OC(=O)CNC(=O)c2ccccc2)cc1 | 1.01
CN(C)/N=N/c1ccccc1Cl | 3.03
CS(=O)(=O)c1cccc(NC(N)=O)c1 | -0.12
COCN1C(=O)CN=C(c2ccccc2)c2cc([N+](=O)[O-])ccc21 | 2.05
CC=CCOC(=O)C1C(C=C(C)C)C1(C)C (centres undefined) | 5.09
O=C([O-])c1ccc2ccccc2c1.[Na+] | -1.07
CCc1ccc2c(c1)C(c1ccccc1F)=NCC(=O)N2 | 2.92
COc1c(N(C)C)cc(Cc2cnc(N)nc2N)cc1N(C)C | 2.05
CC(C)Sc1nnc(C(C)C)c(=O)n1N | 2.06
Cc1nnc(C=NO)s1 | 0.78
CC1=Nc2c(I)cc(Cl)cc2S(=O)(=O)N1 | 1.81
CCOC(=O)C(C#N)=NNc1ccc(Cl)c(C(F)(F)F)c1 | 4.86
N#CC(C#N)=C(c1ccccc1)c1ccccc1 | 3.55
CN(C)C(=O)Nc1ccc(Br)cc1 | 2.19
O=NN1CCC(=O)CC1 | -0.47
NC(=O)NC1OC(=O)c2ccccc21 (centres undefined) | 0.49
COc1cc(Cc2cnc(N)nc2N)cc(OCc2ccccc2)c1OCc1ccccc1 | 4.09
CCCCCc1nnc(N)o1 | 1.1
CC(=O)c1ccc(N2C(N)=NC(N)=NC2(C)C)cc1 | -0.04
O=[N+]([O-])c1ccc(Oc2ccc(C(F)(F)F)cc2[N+](=O)[O-])cc1 | 3.65
Nc1nc2ccccc2o1 | 1.53

Structure (SMILES) | logP
Cc1cc(C)c(NC2=NCCN2)c(C)c1 | 2.32
O=S(=O)(Nc1cn[nH]c1)c1ccccc1 | 0.87
CNP(=O)(OC)Oc1cccc(C(C)(C)C)c1 (centres undefined) | 2.65
O=C(O)CCCCCCCN1C(=O)C=CC1=O | 1.99
CN(Cc1ccc([N+](=O)[O-])cc1)N=Nc1ccc(C(=O)O)cc1 | 4.03
COC12C(COC(N)=O)C3=C(C(=O)C(C)=C(Nc4ncc(C)s4)C3=O)N1CC1NC12 (centres undefined) | 1.16
CCCCCCCCCCCCCCCCCC[n+]1ccccc1.[I-] | 3.68
CC(=O)C(=Cc1ccc(F)cc1)C(C)=O | 1.65
CNC(=NC#N)NC | -0.4
O=C(O)COc1cccc(OC(F)(F)F)c1 | 2.48
CCC[n+]1cccc2ccccc21.[Br-] | -2.52
CCCOn1c(=O)[nH]c(CCC)c(Br)c1=O | 1.73
NNC(=O)c1ccc(N)cc1 | -0.75
CN1CCN=C1Nc1ncc([N+](=O)[O-])s1 | 1.8
CCOc1ccccc1OC(=O)NC | 1.24
O=NN(CCCl)C(=O)NCCO | 0.3
CSC(C)=NOC(=O)N(C)SN(C)C(=O)c1c(Cl)cccc1Cl | 2.6
COc1ccc(CC(C)N)c(OC)c1 (centres undefined) | 1.75
Cc1cc(C(=O)O)no1 | 0.68
CCC(C)NP(=O)(OC)SC (centres undefined) | 0.95
COc1nc(-c2ccccc2)c2ccccc2n1 | 3.5
CCN1CCCCCC1=O | 0.65
CCC(C)(Oc1ccc(Cl)cc1)C(=O)O (centres undefined) | 2.9
O=[N+]([O-])C=Cc1ccc(O)cc1 | 2.12
Nc1cccc2nccnc12 | 1.29

Structure (SMILES) | logP
CCOc1cc(Cc2cnc(N)nc2N)cc(OCC)c1C(C)(C)O | 2.46
COC(=O)C(C#N)=NNc1ccccc1 | 2.59
c1ccc(Sc2cnn[nH]2)cc1 | 2.65
N#Cc1cc(OCC(=O)O)ccc1Cl | 1.56
CNP(=O)(OC)Oc1cc(Cl)c(Cl)cc1Cl (centres undefined) | 3.06
CCCCN(SN(C)C(=O)ON=C(C)SC)C(=O)c1ccccc1 | 3.4
Cc1cc(NC(=O)N(C)C)cc(C)c1Br | 2.92
COc1ccc(OC)c(NC2=NCCN2)c1 | 0.97
NC(=O)Cn1nnc2ccccc21 | -0.1
CCC(C)c1nnc(N)o1 (centres undefined) | 0.62
COP(=O)(NC(C)(C)C)SC (centres undefined) | 0.96
CCOC(=O)c1ccc(Cl)nn1 | 0.12
CS(=O)(=O)c1cccc(NS(=O)(=O)C(F)(F)F)c1 | 1.85
O=[N+]([O-])C=Cc1cccc(O)c1 | 2.07
CC(=O)C(C#N)=NNc1ccc(Cl)cc1C | 4.28
CC(C)(Cc1ccccc1)NC(=O)N(CCCl)N=O | 3.73
CCCC(C)C1(CC)C(=O)NC(=O)N(C)C1=O (centres undefined) | 2.45
CCCC(=O)N(C)SN(C)C(=O)ON=C(C)SC | 2.2
CON(C)C(=O)Nc1ccc(OCCc2ccccc2)cc1 | 4.5
Cn1c(C(O)CO)cnc1[N+](=O)[O-] (centres undefined) | -0.89
CCNC1=NC(=O)C(=Cc2ccc([N+](=O)[O-])o2)S1 | 1.16
CC(=O)NCCn1c([N+](=O)[O-])cnc1C | -0.47
O=S1(=O)NC(C2CCCC2)=Nc2ccccc21 | 1.83
CCOC(=O)CN(C(=O)CCl)c1ccccc1OC | 1.78
COc1ccc(N=NN(C)C(C)=O)cc1 | 2.61

Structure (SMILES) | logP
CN(C)c1cc(Cc2cnc(N)nc2N)cc(N(C)C)c1 | 1.6
O=C(O)COc1ccc(C2CCCC2)cc1 | 3.41
Cc1cc(C)c(NC2=NCCN2)c(Cl)c1 | 2.1
NS(=O)(=O)c1ccccc1Cl | 0.74
CCCCCCCCOn1c(=O)[nH]c(C)c(Br)c1=O | 3.39
COC(=O)C(C#N)=NNc1ccccc1C(F)(F)F | 3.7
O=[N+]([O-])C=Cc1cccc(Cl)c1 | 2.57
O=[N+]([O-])c1nccn1C1SC(CO)C(O)C(O)C1O (centres undefined) | -0.66
CN=C1SC(=Cc2ccc([N+](=O)[O-])o2)C(=O)N1C | 1.42
O=NN(CCCl)C(=O)NC12CC3CC(CC(C3)C1)C2 | 3.56
CSC(C)=NOC(=O)N(C)SN(C(=O)c1ccc(C)cc1)C(C)C | 3.4
OCC1OC(Oc2cc(OC3OC(CO)C(O)C(O)C3O)c(I)cc2I)C(O)C(O)C1O (centres undefined) | -0.25
O=C1CN=C(c2cccc(Cl)c2)c2cc(Br)ccc2N1 | 3.63
O=S1(=O)NC=Nc2cc(Cl)ccc21 | 1.01
CCCCCCCCCCOC(=O)N(C)SN(C)C(=O)ON=C(C)SC | 6.2
CC(C)(C)C1=Nc2ccc(Cl)cc2S(=O)(=O)N1 | 2.4
CCCCN(CCCC)CCS(=O)(=O)c1cc(OC)c(OC)c(OC)c1 | 3.55
COc1cc(Cc2cnc(N)nc2N)ccc1SC | 1.92
Nc1nc(N)nc(-c2cc(F)ccc2Br)n1 | 1.45
Cc1ccccc1C(=O)NN | 0.22
CCOn1c(=O)[nH]c(C)c(Br)c1=O | 0.11
O=[N+]([O-])c1nccn1CC(O)COCC(F)(F)F (centres undefined) | 0.52
O=CN(Cc1ccccc1)c1ccccc1 | 2.62
O=S1(=O)NC(C(Cl)Cl)=Nc2cc(Cl)ccc21 | 1.81
COc1c(O)cc(Cc2cnc(N)nc2N)cc1O | -0.04

Structure (SMILES) | logP
OC(C1CO1)C(O)C1CO1 (centres undefined) | -1.29
CCCN(CC)CC(F)(F)F | 2.38
CON(C)C(=O)Nc1cccc(OCc2ccccc2)c1 | 3.11
S=C=NC(c1ccccc1)c1cccc2ccccc12 (centres undefined) | 6.44
Cc1cccc(C)c1NC(=O)CN(C)C | 0.94
CCCNP(=O)(OC)SC (centres undefined) | 0.65
CCCCCC[n+]1ccc(C)c(C)c1.[I-] | -1.51
COC(=O)C(C#N)=NNc1ccc(C(F)(F)F)cc1 | 3.79
CC(C)C1=Nc2cc(Cl)ccc2S(=O)(=O)N1 | 2
CCOCC(O)Cn1ccnc1[N+](=O)[O-] (centres undefined) | 0.04
O=C1CN=C(c2ccccc2Br)c2cc(Br)ccc2N1 | 3.3
Nc1nc(N)nc(-c2cc(Br)ccc2Br)n1 | 2.09
CCN(CC)c1cc(N)[n+]([O-])c(N)n1 | 1.16
CCC12CC3CC(N)(C1)CC(CC)(C3)C2 | 4.36
[Br-].c1ccc(C[n+]2cccc3ccccc32)cc1 | -0.82
O=C1CCC(=O)N1c1cccc(F)c1 | 0.38
COc1ccc(Br)c(Cc2cnc(N)nc2N)c1 | 2
CCOP(=S)(OCC)Oc1ccc(SC)c(Cl)c1 | 5.06
Cc1cccc(C)c1N=C1NCCN1 | 1.45
CSC(C)=NOC(=O)N(C)SN(C)C(=O)c1ccc(Cl)cc1Cl | 3.2
CN(C)C(=O)Oc1ccc([N+](=O)[O-])cc1 | 1.5
CN(C)C(=O)COc1ccccc1 | 0.8
COC12C(COC(N)=O)C3=C(C(=O)C(C)=C(Nc4ccccc4)C3=O)N1CC1NC12 (centres undefined) | 1.3
CCCCCNc1ccc(C(=O)OCCN(C)C)cc1 | 4.14
